Source: patent US20230293500A1, “AK3287 PREPARATION, AND PREPARATION METHOD THEREFOR AND APPLICATION THEREOF” (SUZHOU ARK BIOPHARMACEUTICAL CO., LTD., priority 2020, published 2023)

Assay: PK analysis of AK3287 in plasma and skin by LC/MS after application on wound
Assay type: in vivo, Duroc pig
Procedure: According to Table 4, 1 ml of the AK3287 emulsion or vehicle was administered to each of the wounds and smeared evenly on the wounds. The above administration treatment was carried out once daily. The time points for administration were set to start on Day 3 and end on Day 21.
3. Sample and analysis of PK test:
On Day 4, Day 9, Day 15, and Day 21 (i.e., on Day 1, Day 6, Day 12, and Day 18 after the first administration), a piece of circular skin was obtained by surgical incision with a skin biopsy punch (10 mm), after the animal was anesthetized and before the drug was smeared. Blood was sampled from the jugular vein and prepared as plasma. A total of 48 skin samples and 48 plasma samples were collected and subjected to PK analysis by LC/MS method.

Cn1cc(-c2cn(-c3ccc(OC(F)(F)F)cc3)c(=O)c3ncn(C)c23)cn1 [AK3287]
amount of AK3287 entering the blood (plasma PK) (plasma, application of emulsion on wound, FIG. 2): a small amount of AK3287 could enter the blood | exposure in the skin, by dose group (skin, 0.5%, 2% and 8% emulsion groups, FIG. 3): higher in the high-dose group | distribution of AK3287 in skin tissues (skin PK) (skin, application of emulsion on wound, FIG. 3): a majority of AK3287 remained in the skin tissues
